The source of these data is PubChem BioAssay (NCI).

Where “and” joins values, the source holds several entries; their conditions need not be identical. Equal entries are not always repeated.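 Interpolation was linear, between the two tested concentrations surrounding the appropriate level; five concentrations were tested over 48 hours in 96-well plates. Here, GI50 denotes the concentration required for 50% inhibition of growth. The concentration for full growth arrest is given as TGI.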

The test system of one assay is CAKI-1 renal. As to the kind of experiment: inhibition of tumour cell growth, NCI panel, 48 h.
Take `COc1ccc(-c2nn(-c3cccc(Cl)c3)cc2C2CC(c3ccccc3)=NN2C(C)=O)cc1` (stereo unspecified): the GI50 is 6.54 µM and the TGI was above 100 µM.
In the case of `CCn1c(-c2nonc2N)nc2c(C#CCN)ncc(OCCCN)c21`, the GI50 is above 25 µM and the TGI is above 25 µM.
Turning to `CN1CCN(Cc2ccc(C(=O)Nc3cncc(C#Cc4cnc(N)c5ccccc45)c3)cc2C(F)(F)F)CC1`, the GI50 is 1.7 µM and the TGI amounted to 3.69 µM.
Consider `CC(=O)OCC1OC(O[C@@H]2C[C@H]3C(C)(C)[C@H](OC(C)=O)CC[C@]3(C)[C@H]3CCC4=C([C@@H](C)C[C@@H](O)[C@H](O)C(C)(C)O)CC[C@@]4(C)[C@@]32C)C(O)C(O)C1O` (stereo partly specified), for which the GI50 is 15.6 µM and the TGI stood at 28.9 µM.
For `N#CC(=C1SCS1)[N+](=O)[O-]`, in that order: 2.14 µM and 16.2 µM.
Taken in the same sequence, the figures for `CC(C)(C)OC(=O)n1cc(CNC(=S)Nc2ccccc2)c2ccccc21` were 4.68 µM and 23.2 µM.
Take `O=C(NNc1nc2c(F)cccc2n2cccc12)c1cnccn1`: the GI50 is 0.628 µM and the TGI was 16.4 µM.
For `O=C(Nc1cccc(-n2ccc3c(NC(=O)c4ccccc4)nccc32)c1)c1cccc(C(F)(F)F)c1`, the GI50 is 0.0556 µM and the TGI came to 3.36 µM.
Take `O=C(c1ccc2ccccc2c1)c1c(C(F)(F)F)n([O-])c2cc(Cl)c(Cl)cc2[n+]1=O`: the GI50 was 1.35 µM and the TGI worked out at 2.63 µM.
`CCc1c2c(nc3cc4c(cc13)OCO4)-c1cc3c(c(=O)n1C2)COC(=O)[C@]3(O)CC`: the GI50 is below 0.001 µM.
As to `CCC(C)C1NC(=O)c2nc(oc2-c2ccccc2)-c2csc(n2)-c2csc(n2)-c2nc(oc2C)-c2coc(n2)CNC(=O)C(C(C)CC)NC1=O` (stereo unspecified), the GI50 was 0.0371 µM and the TGI was determined as 0.151 µM.
`Nc1n[nH]c2ccc([C@@H]3Nc4ccc5[nH]ncc5c4[C@H]4[C@H]5CCC(C5)[C@H]43)cc12`: the GI50 was 0.436 µM and the TGI was 24.7 µM.

A further assay deals with UACC-62 melanoma. As to the kind of experiment: inhibition of tumour cell growth, NCI panel, 48 h.
As for `COc1ccc(-c2nn(-c3cccc(Cl)c3)cc2C2CC(c3ccccc3)=NN2C(C)=O)cc1` (stereo unspecified), the GI50 is 15.3 µM and the TGI was above 100 µM.
For `CCn1c(-c2nonc2N)nc2c(C#CCN)ncc(OCCCN)c21`, in that order: above 25 µM and above 25 µM.
Taken in the same sequence, the figures for `CN1CCN(Cc2ccc(C(=O)Nc3cncc(C#Cc4cnc(N)c5ccccc45)c3)cc2C(F)(F)F)CC1` were 5.22 µM and 17.5 µM.
For `CC(=O)OCC1OC(O[C@@H]2C[C@H]3C(C)(C)[C@H](OC(C)=O)CC[C@]3(C)[C@H]3CCC4=C([C@@H](C)C[C@@H](O)[C@H](O)C(C)(C)O)CC[C@@]4(C)[C@@]32C)C(O)C(O)C1O` (stereo partly specified), in that order: 12.6 µM and 25.1 µM.
Take `N#CC(=C1SCS1)[N+](=O)[O-]`: the GI50 was 2.29 µM and the TGI was found to be 13.6 µM.
For `CC(C)(C)OC(=O)n1cc(CNC(=S)Nc2ccccc2)c2ccccc21`, in that order: 13.3 µM and 26.1 µM.
On to `O=C(NNc1nc2c(F)cccc2n2cccc12)c1cnccn1`, for which the GI50 is 0.477 µM and the TGI is 6.28 µM.
Take `O=C(Nc1cccc(-n2ccc3c(NC(=O)c4ccccc4)nccc32)c1)c1cccc(C(F)(F)F)c1`: the GI50 is 0.0386 µM and the TGI was found to be 6.91 µM.
Taken in the same sequence, the figures for `O=C(c1ccc2ccccc2c1)c1c(C(F)(F)F)n([O-])c2cc(Cl)c(Cl)cc2[n+]1=O` were 1.61 µM and 2.96 µM.
For `C=C1C(=O)O[C@H]2[C@H]1CC/C(CNC(=O)c1c[nH]c3ccc(F)cc13)=C\CC[C@@]1(C)O[C@@H]21`, in that order: 1.27 µM and 3.03 µM.
Turning to `CCc1c2c(nc3cc4c(cc13)OCO4)-c1cc3c(c(=O)n1C2)COC(=O)[C@]3(O)CC`, the GI50 was below 0.001 µM; the TGI is 0.195 µM and 0.409 µM.
In the case of `CCN1CCN(c2nc(NCCCNc3ccnc4cc(Cl)ccc34)c3ccccc3n2)CC1`, the GI50 was 1.87 µM and the TGI is 3.58 µM.
For `CCCCCCCCCCCCCC(=S)NCCCC[C@H](NC(=O)OCc1ccccc1)C(=O)Nc1ccccc1`, in that order: 3.51 µM and above 100 µM.
Taken in the same sequence, the figures for `Nc1n[nH]c2ccc([C@@H]3Nc4ccc5[nH]ncc5c4[C@H]4[C@H]5CCC(C5)[C@H]43)cc12` were 0.389 µM and above 61.1 µM.

The subject of the next assay is DU-145 prostate. As to the kind of experiment: inhibition of tumour cell growth, NCI panel, 48 h.
Turning to `COc1ccc(-c2nn(-c3cccc(Cl)c3)cc2C2CC(c3ccccc3)=NN2C(C)=O)cc1` (stereo unspecified), the GI50 is 5.25 µM and the TGI was above 100 µM.
For `CCn1c(-c2nonc2N)nc2c(C#CCN)ncc(OCCCN)c21`, in that order: above 25 µM and above 25 µM.
For `CN1CCN(Cc2ccc(C(=O)Nc3cncc(C#Cc4cnc(N)c5ccccc45)c3)cc2C(F)(F)F)CC1`, in that order: 1.78 µM and 3.49 µM.
For `CC(=O)OCC1OC(O[C@@H]2C[C@H]3C(C)(C)[C@H](OC(C)=O)CC[C@]3(C)[C@H]3CCC4=C([C@@H](C)C[C@@H](O)[C@H](O)C(C)(C)O)CC[C@@]4(C)[C@@]32C)C(O)C(O)C1O` (stereo partly specified), in that order: 17.8 µM and 31.8 µM.
For the compound `N#CC(=C1SCS1)[N+](=O)[O-]`, the GI50 was 2.56 µM and the TGI was determined as 10.1 µM.
In the case of `CC(C)(C)OC(=O)n1cc(CNC(=S)Nc2ccccc2)c2ccccc21`, the GI50 is 7 µM and the TGI was found to be 35.4 µM.
`O=C(NNc1nc2c(F)cccc2n2cccc12)c1cnccn1`: the GI50 was 0.657 µM and the TGI turned out to be 24.9 µM.
Taken in the same sequence, the figures for `O=C(Nc1cccc(-n2ccc3c(NC(=O)c4ccccc4)nccc32)c1)c1cccc(C(F)(F)F)c1` were 0.0363 µM and 0.168 µM.
For `O=C(c1ccc2ccccc2c1)c1c(C(F)(F)F)n([O-])c2cc(Cl)c(Cl)cc2[n+]1=O`, in that order: 1.57 µM and 2.9 µM.
Regarding `C=C1C(=O)O[C@H]2[C@H]1CC/C(CNC(=O)c1c[nH]c3ccc(F)cc13)=C\CC[C@@]1(C)O[C@@H]21`, the GI50 is 1.09 µM and the TGI was 2.35 µM.
As to `CCc1c2c(nc3cc4c(cc13)OCO4)-c1cc3c(c(=O)n1C2)COC(=O)[C@]3(O)CC`, the TGI is above 100 µM.
On to `CCN1CCN(c2nc(NCCCNc3ccnc4cc(Cl)ccc34)c3ccccc3n2)CC1`, for which the GI50 is 3.05 µM and the TGI is 13.2 µM.
Taken in the same sequence, the figures for `CCC(C)C1NC(=O)c2nc(oc2-c2ccccc2)-c2csc(n2)-c2csc(n2)-c2nc(oc2C)-c2coc(n2)CNC(=O)C(C(C)CC)NC1=O` (stereo unspecified) were 0.0218 µM and 0.0658 µM.
For `CCCCCCCCCCCCCC(=S)NCCCC[C@H](NC(=O)OCc1ccccc1)C(=O)Nc1ccccc1`, the GI50 was 6.78 µM and the TGI was above 100 µM.
Regarding `Nc1n[nH]c2ccc([C@@H]3Nc4ccc5[nH]ncc5c4[C@H]4[C@H]5CCC(C5)[C@H]43)cc12`, the GI50 was 0.445 µM and the TGI is above 28.3 µM.

Another assay concerns U251 CNS. As to the kind of experiment: inhibition of tumour cell growth, NCI panel, 48 h.
Regarding `COc1ccc(-c2nn(-c3cccc(Cl)c3)cc2C2CC(c3ccccc3)=NN2C(C)=O)cc1` (stereo unspecified), the GI50 was 3.15 µM and the TGI is 14.9 µM.
Taken in the same sequence, the figures for `CCn1c(-c2nonc2N)nc2c(C#CCN)ncc(OCCCN)c21` were above 25 µM and above 25 µM.
With `CN1CCN(Cc2ccc(C(=O)Nc3cncc(C#Cc4cnc(N)c5ccccc45)c3)cc2C(F)(F)F)CC1`, the GI50 was 1.78 µM and the TGI is 3.33 µM.
The compound `CC(=O)OCC1OC(O[C@@H]2C[C@H]3C(C)(C)[C@H](OC(C)=O)CC[C@]3(C)[C@H]3CCC4=C([C@@H](C)C[C@@H](O)[C@H](O)C(C)(C)O)CC[C@@]4(C)[C@@]32C)C(O)C(O)C1O` (stereo partly specified) yielded a TGI of 28 µM.
Regarding `N#CC(=C1SCS1)[N+](=O)[O-]`, the GI50 is 2.37 µM and the TGI came to 10.8 µM.
As to `CC(C)(C)OC(=O)n1cc(CNC(=S)Nc2ccccc2)c2ccccc21`, the GI50 was 4.18 µM and the TGI came out at 16 µM.
Taken in the same sequence, the figures for `O=C(NNc1nc2c(F)cccc2n2cccc12)c1cnccn1` were 0.306 µM and 29.2 µM.
With `O=C(Nc1cccc(-n2ccc3c(NC(=O)c4ccccc4)nccc32)c1)c1cccc(C(F)(F)F)c1`, the GI50 was 0.0402 µM and the TGI amounted to 6.16 µM.
On to `O=C(c1ccc2ccccc2c1)c1c(C(F)(F)F)n([O-])c2cc(Cl)c(Cl)cc2[n+]1=O`, for which the GI50 is 1.61 µM and the TGI came to 2.96 µM.
Taken in the same sequence, the figures for `C=C1C(=O)O[C@H]2[C@H]1CC/C(CNC(=O)c1c[nH]c3ccc(F)cc13)=C\CC[C@@]1(C)O[C@@H]21` were 2.68 µM and 7.94 µM.
Turning to `CCN1CCN(c2nc(NCCCNc3ccnc4cc(Cl)ccc34)c3ccccc3n2)CC1`, the GI50 is 2.66 µM and the TGI is 7.17 µM.
For `CCC(C)C1NC(=O)c2nc(oc2-c2ccccc2)-c2csc(n2)-c2csc(n2)-c2nc(oc2C)-c2coc(n2)CNC(=O)C(C(C)CC)NC1=O` (stereo unspecified), in that order: 0.0126 µM and 0.0492 µM.
Taken in the same sequence, the figures for `CCCCCCCCCCCCCC(=S)NCCCC[C@H](NC(=O)OCc1ccccc1)C(=O)Nc1ccccc1` were 3.21 µM and above 100 µM.
For `Nc1n[nH]c2ccc([C@@H]3Nc4ccc5[nH]ncc5c4[C@H]4[C@H]5CCC(C5)[C@H]43)cc12`, in that order: 0.435 µM and above 100 µM.

A further assay has as its system HS 578T breast. As to the kind of experiment: inhibition of tumour cell growth, NCI panel, 48 h.
As for `COc1ccc(-c2nn(-c3cccc(Cl)c3)cc2C2CC(c3ccccc3)=NN2C(C)=O)cc1` (stereo unspecified), the GI50 was 2.81 µM and the TGI was found to be 20.1 µM.
For `CCn1c(-c2nonc2N)nc2c(C#CCN)ncc(OCCCN)c21`, in that order: above 25 µM and above 25 µM.
For `CN1CCN(Cc2ccc(C(=O)Nc3cncc(C#Cc4cnc(N)c5ccccc45)c3)cc2C(F)(F)F)CC1`, in that order: 2.98 µM and 14.6 µM.
For `CC(=O)OCC1OC(O[C@@H]2C[C@H]3C(C)(C)[C@H](OC(C)=O)CC[C@]3(C)[C@H]3CCC4=C([C@@H](C)C[C@@H](O)[C@H](O)C(C)(C)O)CC[C@@]4(C)[C@@]32C)C(O)C(O)C1O` (stereo partly specified), in that order: 15.2 µM and 32.8 µM.
For the compound `N#CC(=C1SCS1)[N+](=O)[O-]`, the GI50 was 3.67 µM and the TGI is 41.2 µM.
For `CC(C)(C)OC(=O)n1cc(CNC(=S)Nc2ccccc2)c2ccccc21`, the GI50 is 13.7 µM and the TGI stood at 42.2 µM.
For `O=C(NNc1nc2c(F)cccc2n2cccc12)c1cnccn1`, in that order: 7.05 µM and 80.4 µM.
`O=C(Nc1cccc(-n2ccc3c(NC(=O)c4ccccc4)nccc32)c1)c1cccc(C(F)(F)F)c1`: the GI50 is 0.0305 µM and the TGI is 3.28 µM.
For `O=C(c1ccc2ccccc2c1)c1c(C(F)(F)F)n([O-])c2cc(Cl)c(Cl)cc2[n+]1=O`, in that order: 1.85 µM and 4.15 µM.
For `C=C1C(=O)O[C@H]2[C@H]1CC/C(CNC(=O)c1c[nH]c3ccc(F)cc13)=C\CC[C@@]1(C)O[C@@H]21`, in that order: 2.65 µM and 13.1 µM.
On to `CCc1c2c(nc3cc4c(cc13)OCO4)-c1cc3c(c(=O)n1C2)COC(=O)[C@]3(O)CC`, for which the TGI is above 100 µM.
For the compound `CCN1CCN(c2nc(NCCCNc3ccnc4cc(Cl)ccc34)c3ccccc3n2)CC1`, the GI50 was 2.24 µM and the TGI was 6.22 µM.
In the case of `CCC(C)C1NC(=O)c2nc(oc2-c2ccccc2)-c2csc(n2)-c2csc(n2)-c2nc(oc2C)-c2coc(n2)CNC(=O)C(C(C)CC)NC1=O` (stereo unspecified), the GI50 is 0.0424 µM and the TGI stood at 0.218 µM.
For the compound `CCCCCCCCCCCCCC(=S)NCCCC[C@H](NC(=O)OCc1ccccc1)C(=O)Nc1ccccc1`, the GI50 is 4.31 µM and the TGI is above 100 µM.
On to `Nc1n[nH]c2ccc([C@@H]3Nc4ccc5[nH]ncc5c4[C@H]4[C@H]5CCC(C5)[C@H]43)cc12`, for which the GI50 was 0.31 µM and the TGI was 12.7 µM.
